The source of these data is ChEMBL document CHEMBL1671624, “Efficacy of quinoxaline-2-carboxylate 1,4-di-N-oxide derivatives in experimental tuberculosis” (Antimicrob Agents Chemother, 2008).

Each structure is given as a SMILES string. Values after ≈ are worked out from the molar mass of the structure shown. Some results are limits rather than exact numbers.

What all share (assay type): functional
Holding throughout (settings): variant bovis BCG

The subject of assay [1] is Mycobacterium tuberculosis. The assay is described as follows: Antibacterial activity against Mycobacterium bovis BCG harboring fbiC gene by microplate Alamar Blue assay.
For assay [2], the system named is Mycobacterium tuberculosis. Kind of assay: Antibacterial activity against Mycobacterium bovis BCG harboring pil8 gene by microplate Alamar Blue assay.
Assay [3] relates to Mycobacterium tuberculosis. The assay is described as follows: Antibacterial activity against wild-type Mycobacterium bovis BCG by microplate Alamar Blue assay.
The subject of assay [4] is Mycobacterium tuberculosis. Kind of assay: Antibacterial activity against Mycobacterium bovis BCG harboring moaA gene by microplate Alamar Blue assay.
Assay [5] relates to Mycobacterium tuberculosis. The assay is described as follows: Antibacterial activity against Mycobacterium bovis BCG harboring moaD gene by microplate Alamar Blue assay.
The test system of assay [6] is Mycobacterium tuberculosis. Kind of assay: Antibacterial activity against Mycobacterium bovis BCG harboring fgd gene by microplate Alamar Blue assay.

Consider `CCOC(=O)c1c(C)[n+]([O-])c2ccc(Cl)cc2[n+]1[O-]`, for which the MIC was 0.71 µM (≈ 0.201 µg/mL) in assay [1]; 0.72 µM (≈ 0.204 µg/mL) in assay [2]; 0.5 µM (≈ 0.141 µg/mL) in assay [3]; 0.38 µM (≈ 0.107 µg/mL) in assay [4]; 0.55 µM (≈ 0.155 µg/mL) in assay [5]; 0.5 µM (≈ 0.141 µg/mL) in assay [6].
Turning to `O=C(Nc1ccc([N+](=O)[O-])cc1Cl)c1cc(Cl)ccc1O` [NICLOSAMIDE], the MIC was determined as 1.57 µM (≈ 0.514 µg/mL) in assay [1]; 1.87 µM (≈ 0.612 µg/mL) in assay [2]; 3.13 µM (≈ 1.02 µg/mL) in assay [3]; 1.86 µM (≈ 0.608 µg/mL) in assay [4]; 1.9 µM (≈ 0.622 µg/mL) in assay [5]; 1.61 µM (≈ 0.527 µg/mL) in assay [6].
As to `O=[N+]([O-])c1cn2c(n1)OC[C@@H](OCc1ccc(OC(F)(F)F)cc1)C2` [PRETOMANID], the MIC in assay [1] is greater than 128 µM; in assay [2], greater than 128 µM; in assay [3] it was 0.12 µM (≈ 0.0431 µg/mL); in assay [4], greater than 128 µM; in assay [5] it was greater than 128 µM; in assay [6], greater than 128 µM.
